Assay results reported in US11339169B2, “P2X3 and/or P2X2/3 compounds and methods” (Asana BioSciences, LLC, priority 2016, dated 2022).
“And” between values parts separate entries of the source, which are not always exact repeats. Equal entries are not always repeated.

Columns and labels:
hP2X3 = target: T1, hP2X3 (Homo sapiens, UniProt P56373); experiment: FLIPR intracellular calcium assay, hP2X3; type: cell-based; conditions: human P2X3-HEK cells, agonist at EC75
T1 construct: host or cells: HEK (hP2X3-HEK)
T1 sequence (P56373 1-397): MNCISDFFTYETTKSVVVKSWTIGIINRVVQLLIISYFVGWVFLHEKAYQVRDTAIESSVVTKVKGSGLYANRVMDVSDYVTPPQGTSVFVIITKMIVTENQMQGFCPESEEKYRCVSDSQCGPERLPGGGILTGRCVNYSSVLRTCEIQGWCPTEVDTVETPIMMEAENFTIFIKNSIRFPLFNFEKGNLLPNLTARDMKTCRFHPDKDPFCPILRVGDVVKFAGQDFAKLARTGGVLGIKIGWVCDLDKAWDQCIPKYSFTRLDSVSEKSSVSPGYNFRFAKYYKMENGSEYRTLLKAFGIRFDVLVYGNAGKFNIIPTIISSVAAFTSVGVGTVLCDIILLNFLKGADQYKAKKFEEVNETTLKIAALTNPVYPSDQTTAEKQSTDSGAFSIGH
Description: (§1) The FLIPR® assay utilizes cells which express human or rat P2X3 or P2X2/3 receptors. Recombinant cells expressing hP2X3 (Cat #6188) and hP2X2/3 (Cat #6179) were procured from Chantest Corp. Rat P2X2 (NCBI Accession No: U14414) was amplified by PCR from PC12 cDNA (a rat adrenal medulla cell line). The PCR product obtained containing the protein coding sequence of rat P2X2 was cloned into EcoRV-digested and dephosphorylated vector plRES-puro3 within the multiple cloning site (MCS). See, FIG. 1A.
(§2) (i) Intracellular Calcium Assay Protocol for Screening Compounds
(§3) Cryo-vial containing 6×10^6 cells (human P2X3-HEK/human P2X2/3-TRex293/rat P2X2/3-TRex293/rat P2X3 TRex-CHO) was thawed in a 37° C. water bath. Cells were suspended in 20 mL of respective cell plating media (See annexure for composition) in a 50 mL centrifuge tube. The cell viability was checked with the help of Trypan Blue dye. Upon washing, cells were plated in a black 384-well clear bottomed, sterile poly-D-lysine coated plate such that, each well contained 10,000 cells (15,000/well for hP2X3) in 30 μL cell plating media. The plate was incubated in a 5% CO2 incubator at 37° C. for 24 h.
(§4) The next day, prior to the assay, the cell plating media was removed from each well by decanting and gentle tapping. Thirty μL of FLIPR Calcium 4 dye solution was added to each well. The plate was incubated at 37° C. for 45 min (60 min for hP2X3). The plate was next equilibrated at room temperature for 15 minutes before placing it in a 384 well FLIPR for the assay.
(§5) Compounds were dissolved in DMSO and serially diluted following 11 point half log (3.16 fold) dilution with a starting concentration of 2 mM. Dilutions were mixed with assay buffer just before performing the assay.
(§6) Compounds were added to the respective wells of the assay-ready cell plate with the help of the FLIPR and fluorescence readings were captured for 5 min to observe any possible agonistic property of the compounds. The plate was then incubated at room temperature for 15 min. The cells were stimulated with respective agonist EC75 concentration and the fluorescence readings were captured for another 5 min by FLIPR. The difference in fluorescence readings in presence of the compounds were compared with that of the control wells (wells having no compound) to calculate the inhibitory potency of the compounds. The IC50 values of the compounds were determined using the Graph pad Prism software.
(§7) (ii) Cell Plating Media for hP2X3-HEK and hP2X2/3-TRex293 Cells • DMEM/F12 (1:1) HAM media (Invitrogen; Cat #11039) • 1×NEAA (Invitrogen; Cat #11140) • 25 mM HEPES (Invitrogen; Cat #15630) • 1 mM sodium pyruvate (Invitrogen; Cat #11360) • 10% tetracycline negative FBS (PAA; Cat #A15-209) • 1 μg/mL doxycycline (Clontech; Cat #63131) [for hP2X2/3-TRex293 cells only]
(§8) (v) Assay Buffer Composition • HBSS (Invitrogen Cat #14025) • 20 mM HEPES (Invitrogen Cat #15630) • 0.01% F127 (Sigma Cat #P2443) • 1.8 mM CaCl2 (Sigma Cat #C5080) • pH adjusted to 7.4
(§9) (vi) Dye Solution Composition • 1× FLIPR Calcium 4 dye in assay buffer (Molecular devices Cat #R8141) • 1.8 mM Probenecid (Sigma Cat #P8761) • pH adjusted to 7.4

hP2X2/3 = target: T2, hP2X2/3 (Homo sapiens, UniProt P56373+Q9UBL9); experiment: FLIPR intracellular calcium assay, hP2X2/3; type: cell-based; conditions: human P2X2/3-TRex293 cells, agonist at EC75
T2 construct: host or cells: TRex293 (hP2X2/3-TRex293), doxycycline-induced
T2 sequence (P56373 1-397): T1 sequence (P56373 1-397)
T2 sequence (Q9UBL9 1-471): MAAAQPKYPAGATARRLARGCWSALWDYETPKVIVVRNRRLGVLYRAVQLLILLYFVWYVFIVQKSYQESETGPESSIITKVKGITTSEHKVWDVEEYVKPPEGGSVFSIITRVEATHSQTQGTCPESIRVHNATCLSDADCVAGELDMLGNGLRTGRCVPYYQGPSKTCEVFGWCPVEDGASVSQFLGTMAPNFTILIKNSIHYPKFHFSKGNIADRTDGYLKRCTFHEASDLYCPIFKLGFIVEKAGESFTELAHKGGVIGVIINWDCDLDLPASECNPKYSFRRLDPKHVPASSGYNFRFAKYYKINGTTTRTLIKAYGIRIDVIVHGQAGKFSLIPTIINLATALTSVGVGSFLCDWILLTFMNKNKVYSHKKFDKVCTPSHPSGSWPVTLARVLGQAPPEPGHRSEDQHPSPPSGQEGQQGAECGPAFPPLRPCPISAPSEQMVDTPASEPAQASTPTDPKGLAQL
Description: as §1, §2, §3, §4, §5, §6, §7, §8, §9

Compound | IC50 (hP2X3) | IC50 (hP2X2/3) [nM]
CCC(C)n1ncc2nc(-c3nnc(C)o3)nc(N[C@@H](c3cnc4ccccc4c3)C3CC3)c21 (stereo partly drawn) [Example 125, [1-sec-Butyl-5-(5-methyl-[1,3,4]oxadiazol-2-yl)-1H-pyrazolo[4,3-d]pyrimidin-7-yl]-((R)-cyclopropyl-quinolin-3-yl-methyl)-amine] | 1 to 100 nM | 1000 to 10000
CCC(C)n1ncc2nc(N3CCN(C(C)=O)CC3)nc(N[C@H](CC)c3cnc4ccccc4c3)c21 (stereo partly shown) [Example 43] | 1 to 100 nM | 1000 to 10000
CCC(C)n1ncc2nc(N3CCN(C(C)=O)CC3)nc(NC(C)c3ccc(-c4ccccc4)nc3)c21 (stereo not shown) [Example 52] | 1 to 100 nM | 1000 to 10000
CCC(C)n1ncc2nc(-c3cnn(C)c3)nc(N[C@@H](c3cnc4ccccc4c3)C3CC3)c21 (stereo partly shown) [Example 114] | 1 to 100 nM | 1 to 100
CC(C1CC1)n1ncc2nc(N3CCN(C(N)=O)CC3)nc(N[C@@H](c3cnc4ccccc4c3)C3CC3)c21 (stereo partly shown) [Example 86] | 1 to 100 nM | 1 to 100
CC(=O)N1CCN(c2nc(NC(C)c3cnc4ccccc4c3)c3c(cnn3C(C)C)n2)CC1 (stereo not shown) [Example 11] | 1 to 100 nM | 1000 to 10000
CCC(C)n1ncc2nc(-n3cnnn3)nc(N[C@@H](c3cnc4ccccc4c3)C3CC3)c21 (single isomer, unassigned) [Example 79] | 100 to 1000 nM | 1000 to 10000
CCC(CC)n1ncc2nc(N3CCN(C(C)=O)CC3)nc(N[C@H](C)c3cnc4ccc(F)cc4c3)c21 [Example 61] | 1 to 100 nM | 100 to 1000
CCC(C)n1ncc2nc(-n3cncn3)nc(N[C@@H](c3cnc4ccccc4c3)C3CC3)c21 (stereo partly shown) [Example 77] | 1 to 100 nM and 100 to 1000 nM | 1000 to 10000
CC[C@H](C)n1ncc2nc(N3CCN(C(N)=O)CC3)nc(NC(c3cnc4ccccc4n3)C3CC3)c21 (stereo partly shown) [Example 83] | 1 to 100 nM | 1000 to 10000
CC(=O)N1CCN(c2nc(N[C@H](C)c3cnc4ccccc4c3)c3nn(C(C)C)c(C)c3n2)CC1 [Example 102] | 1 to 100 nM | > 10000
CC(=O)N1CCN(c2nc(N[C@H](C)c3cnc4ccccc4c3)c3nn(C(C)C)c(C4CC4)c3n2)CC1 [Example 107] | 1 to 100 nM | –
CCC(C)n1ncc2nc(N3CCN(C(=N)N)CC3)nc(N[C@@H](c3cnc4ccccc4c3)C3CC3)c21 (stereo partly drawn) [Example 112, 4-{1-sec-Butyl-7-[((R)-cyclopropyl-quinolin-3-yl-methyl)-amino]-1H-pyrazolo[4,3-d]pyrimidin-5-yl}-piperazine-1-carboxamidine] | 1 to 100 nM | 1 to 100
CCC(CC)n1ncc2nc(N3CCN(C(C)=O)CC3)nc(NC(C)c3ccc4sccc4c3)c21 (stereo not shown) [Example 57] | 1 to 100 nM | 100 to 1000
CC(C)n1ncc2nc(N3CCN(C)C(=O)C3)nc(N[C@@H](c3cnc4ccccc4c3)C3CC3)c21 [Example 59] | 1 to 100 nM | 100 to 1000
CCC(C)n1ncc2nc(-n3cnnn3)nc(N[C@@H](c3cnc4ccccc4c3)C3CC3)c21 (single isomer, unassigned) [Example 78] | 100 to 1000 nM | –
CC(=O)N1CCN(c2nc(NC(C)(C)Cc3ccc(Cl)cc3)c3nn(C(C)C)c(Br)c3n2)CC1 [Example 97] | 1 to 100 nM | –
CCC(C)n1ncc2nc(N3CCN(C(C)=O)CC3)nc(NC(C)c3ccc(-c4ccccn4)cc3)c21 (stereo not shown) [Example 53] | 100 to 1000 nM | –
CCC(CC)n1ncc2nc(N3CCN(C(C)=O)CC3)nc(N[C@@H](C)c3cnc4ccc(F)cc4c3)c21 [Example 54] | 100 to 1000 nM | –

Compound | IC50 (hP2X3) | IC50 (hP2X2/3) [nM]
CC(=O)N1CCN(c2nc(N[C@H](C)c3cnc4ccccc4c3)c3c(cnn3CC3CCOCC3)n2)CC1 [Example 26] | 100 to 1000 nM | –
CCC(C)n1ncc2nc(-c3cnn(CC(N)=O)c3)nc(N[C@@H](c3cnc4ccccc4c3)C3CC3)c21 (stereo partly shown) [Example 120] | 100 to 1000 nM | –
CC(=O)N1CCN(c2nc(NC(C)c3cnc4ccccc4c3)c3nn(C(C)C)cc3n2)CC1 (stereo not shown) [Example 2] | 100 to 1000 nM | –
CCC(CC)n1ncc2nc(N3CCN(C(C)=O)CC3)nc(NC(c3ccc(OCC4CC4)nc3)C3CC3)c21 (stereo not shown) [Example 63] | 100 to 1000 nM | –
CC(=O)N1CCN(c2nc(NC(C)c3cnc4ccccc4c3)c3nn(C(C)C)c(C(N)=O)c3n2)CC1 (stereo not shown) [Example 95] | 100 to 1000 nM | –
CC(=O)N1CCN(c2nc(N[C@@H](C)c3cnc4ccccc4c3)c3c(cnn3C(C)C)n2)CC1 [Example 17] | 100 to 1000 nM | –
CCn1ncc2nc(N3CCN(C(C)=O)CC3)nc(N[C@H](C)c3cnc4ccccc4c3)c21 [Example 50] | 100 to 1000 nM | –
CC(=O)N1CCN(c2nc(N[C@H](C)c3cnc4ccccc4c3)c3nn(-c4ccccc4)cc3n2)CC1 [Example 9, 1-{4-[2-Phenyl-7-((R)-1-quinolin-3-yl-ethylamino)-2H-pyrazolo[4,3-d]pyrimidin-5-yl]-piperazin-1-yl} ethanone] | 100 to 1000 nM | –
CCC(CC)n1ncc2nc(N3CCN(C(C)=O)CC3)nc(N[C@@H](CC)c3cnc4ccccc4c3)c21 [Example 36] | 100 to 1000 nM | –
CCC(=O)N1CCN(c2nc(N[C@H](C)c3cnc4ccccc4c3)c3c(cnn3C(C)C)n2)CC1 [Example 37] | 1 to 100 nM | –
CC(C)n1ncc2nc(N3CCNC(=O)C3)nc(N[C@H](C)c3cnc4ccccc4c3)c21 [Example 41] | 100 to 1000 nM | –
CC(=O)N1CCN(c2nc(N[C@H](C)c3cnc4ccccc4c3)c3c(cnn3C3CCOCC3)n2)CC1 [Example 27] | 1 to 100 nM | –
CCC(CC)n1cc2nc(N3CCN(C(C)=O)CC3)nc(N[C@H](C)c3cnc4ccccc4c3)c2n1 [Example 8] | 1 to 100 nM | –
4-{1-sec-Butyl-7-[((R)-cyclopropyl-quinolin-3-yl-methyl)-amino]-1H-pyrazolo[4,3-d]pyrimidin-5-yl}-piperazine-1-sulfonic Acid Amide [Example 109] | 100 to 1000 nM | –
CC[C@H](C)n1ncc2nc(N3CCN(C(N)=O)CC3)nc(NC(C)c3n[nH]c4ccccc34)c21 (stereo partly shown) [Example 71] | 100 to 1000 nM | –
CCCCCCn1ncc2nc(N3CCN(C(C)=O)CC3)nc(N[C@H](C)c3cnc4ccccc4c3)c21 [Example 28] | 100 to 1000 nM | –
CCC(C)n1ncc2nc(N3CCN(C)C(=O)C3)nc(N[C@H](C)c3cnc4ccccc4c3)c21 (stereo partly shown) [Example 20] | 100 to 1000 nM | –
CC[C@H](C)n1ncc2nc(N3CCN(C(N)=O)CC3)nc(NC(c3ccc4nccn4c3)C3CC3)c21 (stereo partly shown) [Example 67] | 100 to 1000 nM | –
CC[C@H](C)n1ncc2nc(N3CCN(C(N)=O)CC3)nc(NC(C)c3cc4ccccn4n3)c21 (stereo partly shown) [Example 73] | 100 to 1000 nM | –
